System: HIV-IIIb
Assay: Antiviral assay in MT4 cells
Type: cell-based
Conditions: Human immunodeficiency virus 1, IIIB, MT4, 120 h, MT4 cells infected with HIV-IIIb, 5 days, CellTiter-Glo; read-out: EC50 nM in MT-4
Procedure, shortened: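 MT4 cells pre-infected with HIV-IIIb (0.004 m.o.i.) at 37 °C, or mock-infected, then seeded at 2000 cells/well onto 3-fold serially diluted compound (10 concentrations, quadruplicate) in RPMI 1640 with 10% FBS. After 5 days at 37 °C, cell viability read by CellTiter-Glo luminescence.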

| Compound | EC50 [nM] |
| --- | --- |
| O=C(NCc1c(F)cc(F)cc1F)c1cn2c(c(O)c1=O)C(=O)N1[C@H](C2)[C@H]2C[C@@H]1C(F)(F)C2 [Compound 83, (1S,4R,12aS)-3,3-di fluoro-7-hydroxy-6,8-dioxo-N-(2,4,6-trifluorobenzyl)-1,2,3,4,6,8,12,12a-octahydro-1,4-methanodipyrido[1,2-a:1′,2′-d]pyrazine-9-carboxamide] | 1.9 |
| C[C@@H]1C[C@H]2C[C@@H]1[C@@H]1Cn3cc(C(=O)NCc4c(F)cc(F)cc4F)c(=O)c(O)c3C(=O)N21 [Compound 84, (1S,2R,4 S,12aR)-7-hydroxy-2-methyl-6,8-dioxo-N-(2,4,6-trifluorobenzyl)-1,2,3,4,6,8,12,12a-octahydro-1,4-methanodipyrido[1,2-a:1′,2′-d]pyrazine-9-carboxamide] | 2.9 |
| O=C(NCc1c(F)cc(F)cc1F)c1cn2c(c(O)c1=O)C(=O)N1[C@H]3CCC[C@H](C3)[C@H]1C2 [Compound 85, (6 aS,7R,11S)-1-hydroxy-2,13-dioxo-N-(2,4,6-trifluorobenzyl)-6,6a,7,8,9,10,11,13-octahydro-2H-7,11-methanopyrido[1′,2′: 4,5]pyrazino[1,2-a]azepine-3-carboxamide] | 2 |
| C[C@H]1C[C@@H]2C[C@H]1N1C(=O)c3c(O)c(=O)c(C(=O)NCc4c(F)cc(F)cc4F)cn3C[C@H]21 [Compound 86, (1R,3S,4R,12aS)-7-hydroxy-3-methyl-6,8-dioxo-N-(2,4,6-trifluorobenzyl)-1,2,3,4,6,8,12,12a-octahydro-1,4-methanodipyrido[1,2-a:1′,2′-d]pyrazine-9-carboxamide] | 2.3 |
| O=C(NCc1cccc(Cl)c1F)c1cn2c(c(O)c1=O)C(=O)N1[C@H]3CC[C@H](C3)O[C@@H]1C2 [Compound 88, (2R,5S,13aR)—N-(3-chloro-2-fluorobenzyl)-8-hydroxy-7,9-dioxo-2,3,4,5,7,9,13,13a-octahydro-2,5-methanopyrido[1′,2′:4,5]pyrazino[2,1-b][1,3]oxazepine-10-carboxamide] | 2.9 |
| O=C(NCc1cc(F)ccc1F)c1cn2c(c(O)c1=O)C(=O)N1[C@H]3CC[C@H](C3)O[C@@H]1C2 [Compound 89, (2R,5S,13aR)—N-(2,5-difluorobenzyl)-8-hydroxy-7,9-dioxo-2,3,4,5,7,9,13,13a-octahydro-2,5-methanopyrido[1′,2′:4,5]pyrazino[2,1-b][1,3]oxazepine-10-carboxamide] | 8.4 |
| O=C(NCc1cccc(Cl)c1F)c1cn2c(c(O)c1=O)C(=O)N1[C@H]3CC[C@H](C3)[C@@H]1C2 [Compound 90, (1R,4S,12aR)—N-(3-chloro-2-fluorobenzyl)-7-hydroxy-6,8-dioxo-1,2,3,4,6,8,12,12a-octahydro-1,4-methanodipyrido[1,2-a:1′,2′-d]pyrazine-9-carboxamide] | 5.7 |
| O=C(NCc1ccc(F)c(F)c1F)c1cn2c(c(O)c1=O)C(=O)N1[C@H]3CC[C@H](C3)[C@@H]1C2 [Compound 91, (1R,4S,12aR)-7-hydroxy-6,8-dioxo-N-(2,3,4-trifluorobenzyl)-1,2,3,4,6,8,12,12a-octahydro-1,4-methanodipyrido[1,2-a:1′,2′-d]pyrazine-9-carboxamide] | 5 |
| O=C(NCc1ccc(Cl)cc1F)c1cn2c(c(O)c1=O)C(=O)N1[C@H]3CC[C@H](C3)[C@@H]1C2 [Compound 92, (1R,4S,12aR)—N-(4-chloro-2-fluorobenzyl)-7-hydroxy-6,8-dioxo-1,2,3,4,6,8,12,12a-octahydro-1,4-methanodipyrido[1,2-a:1′,2′-d]pyrazine-9-carboxamide] | 18.6 |
| O=C(NCc1c(F)cc(F)cc1Cl)c1cn2c(c(O)c1=O)C(=O)N1[C@H]3CC[C@H](C3)[C@@H]1C2 [Compound 93, (1R,4S,12aR)—N-(2-chloro-4,6-difluorobenzyl)-7-hydroxy-6,8-dioxo-1,2,3,4,6,8,12,12a-octahydro-1,4-methanodipyrido[1,2-a:1′,2′-d]pyrazine-9-carboxamide] | 2.2 |
| O=C(NCc1ccccc1)c1cn2c(c(O)c1=O)C(=O)N1[C@H]3CC[C@H](C3)[C@@H]1C2 [Compound 94, (1R,4S,12aR)—N-benzyl-7-hydroxy-6,8-dioxo-1,2,3,4,6,8,12,12a-octahydro-1,4-methanodipyrido[1,2-a:1′,2′-d]pyrazine-9-carboxamide] | 11.5 |
| O=C(NCc1c(F)cc(F)cc1F)c1cn2c(c(O)c1=O)C(=O)N1[C@@H](C2)[C@H]2C[C@@H]1C(F)(F)C2 [Compound 98, (1S,4R,12aR)-3,3-difluoro-7-hydroxy-6,8-dioxo-N-(2,4,6-trifluorobenzyl)-1,2,3,4,6,8,12,12a-octahydro-1,4-methanodipyrido[1,2-a:1′,2′-d]pyrazine-9-carboxamide] | 2.4 |
| C[C@H]1C[C@@H]2C[C@H]1N1C(=O)c3c(O)c(=O)c(C(=O)NCc4c(F)cc(F)cc4F)cn3C[C@@H]21 [Compound 99, (1R,3S,4R,12aR)-7-hydroxy-3-methyl-6,8-dioxo-N-(2,4,6-trifluorobenzyl)-1,2,3,4,6,8,12,12a-octahydro-1,4-methanodipyrido[1,2-a:1′,2′-d]pyrazine-9-carboxamide] | 2 |
| O=C(NCc1ccc(F)cc1F)c1cn2c(c(O)c1=O)C(=O)N1[C@H]3CC[C@H](CC3)[C@H]1C2 [Compound 100, (1R,4R,12aS)—N-(2,4-difluorobenzyl)-7-hydroxy-6,8-dioxo-1,2,3,4,6,8,12,12a-octahydro-1,4-ethanodipyrido[1,2-a:1′,2′-d]pyrazine-9-carboxamide] | 2.2 |
| O=C(NCc1c(F)cc(F)cc1F)c1cn2c(c(O)c1=O)C(=O)N1[C@H]3CC[C@H](CC3)[C@H]1C2 [Compound 101, (1R,4R,12aS)-7-hydroxy-6,8-dioxo-N-(2,4,6-trifluorobenzyl)-1,2,3,4,6,8,12,12a-octahydro-1,4-ethanodipyrido[1,2-a:1′,2′-d]pyrazine-9-carboxamide] | 2.1 |
| O=C(NCc1c(F)cc(F)cc1F)c1cn2c(c(O)c1=O)C(=O)N1[C@H]3CC[C@H](CC3)[C@@H]1C2 [Compound 102, (1S,4S,12aR)-7-hydroxy-6,8-dioxo-N-(2,4,6-trifluorobenzyl)-1,2,3,4,6,8,12,12a-octahydro-1,4-ethanodipyrido[1,2-a:1′,2′-d]pyrazine-9-carboxamide] | 2.3 |
| O=C(NCc1c(F)cc(F)cc1F)c1cn2c(c(O)c1=O)C(=O)N1[C@@H]3C[C@@H](C(F)C3F)[C@@H]1C2 (stereo partly drawn) [Compound 103, (1R,4R,12aR)-2,3-difluoro-7-hydroxy-6,8-dioxo-N-(2,4,6-trifluorobenzyl)-1,2,3,4,6,8,12,12a-octahydro-1,4-methanodipyrido[1,2-a:1′,2′-d]pyrazine-9-carboxamide] | 10.3 |

— patent US10689399B2, “Substituted 3,4,5,6,8,10,14,14a-octahydro-2h-2,6-methanopyrido[1′,2′:4,5]pyrazino[2,1-b][1,3]oxazocines and methods for treating viral infections” (Gilead Sciences, Inc., priority 2012, dated 2020)
